According to publication PMC2639596, “Antimicrobial peptides effectively kill a broad spectrum of Listeria monocytogenes and Staphylococcus aureus strains independently of origin, sub-type, or virulence factor expression” (BMC Microbiology, 2008):
Like-named read-outs stand apart in the source and are kept apart here. Bridge positions count the residues as written; N and C are the ends. Ends that are not written are not given here.

What was measured:
Listeria monocytogenes = format: cell-based; settings: radial diffusion, MHB pH 7.4/1% agarose/0.1% glucose, overnight, 37°C
Experimental: (§1) Experiments were carried out with a collection of 25 Listeria monocytogenes strains (Table 1) and 16 Staphylococcus aureus strains (Table 2) representing different lineages and serotypes (L. monocytogenes), spa types (S. aureus), and origins (food processing environment, food products, and human clinical isolates). Six L. monocytogenes strains were mutants of the EGD strain and were mutated in genes known to be involved in stress tolerance. The S. aureus collection comprised two deletion mutants, strains Sa113/ΔmprF [8] and Sa113/ΔdltA [7], known to be more sensitive to host defense peptides. Two of the S. aureus strains could not immediately be assigned to an existing spa type and we are in the process of acquiring the additional information that is needed to assign a new spa type to them. The strains were obtained from The National Institute of Aquatic Resources and The National Food Institute, Technical University of Denmark, Faculty of Life Sciences, University of Copenhagen, Denmark, Statens Serum Institut, Denmark, University of Würzburg, Germany and Campden Food and Drink Association, United Kingdom. Stock cultures were stored at -80°C in 4% (w/V) glycerol, 0.5% (w/V) glucose, and 2.0% (w/V) skimmed milk powder. The bacteria were grown in Brain Heart Infusion (BHI) broth (Oxoid, CM0225), Tryptone Soy Broth (TSB) (Oxoid, CM129), and cation-adjusted Mueller-Hinton II Broth (MHB) (Becton Dickinson, 212322) adjusted to pH 7.4. To avoid unspecific binding of host defense peptides to plastic ware and agar, all MIC determinations were carried out using polypropylene plastic ware and radial diffusion assays were carried out in MHB supplemented with 1% agarose (Invitrogen, 15510-027) as gelling agent.
(§2) Protamine was purchased from Sigma (P4020-5G). Plectasin, novicidin, and novispirin G10 were supplied by Novozymes A/S. Recombinant HBD-3 was purchased from PeproTech (300-52).
(§3) Each strain was tested in two independent trials.

Staphylococcus aureus = format: cell-based; settings: radial diffusion, MHB pH 7.4/1% agarose/0.1% glucose, overnight, 37°C
Experimental: as §1, §2, §3

[1] = test system: L. monocytogenes and S. aureus; experiment: Minimum bactericidal concentration (MBC), plating from MIC wells; format: cell-based, Listeria monocytogenes, Staphylococcus aureus; settings: 99.9% reduction of initial inoculum; 10 μl from wells with no visible growth plated on BHI agar
Experimental: The strain collection was tested for sensitivity to protamine, plectasin, novicidin, and novispirin G10 by determining their minimal inhibitory concentration (MIC) using a microbroth dilution method. Colonies from a BHI agar plate incubated overnight were suspended in MHB pH 7.4 to a turbidity of 0.11–0.12 at 546 nm (approx. 1.0 × 10^8 CFU/ml) and diluted in MHB to a concentration of 5.0 × 10^5 CFU/ml. 90 μl of bacterial suspension was incubated with 10 μl of peptide solution in polypropylene 96-well plates (Nunc, 442587) for 18–24 h at 37°C. The peptide solutions were made fresh on the day of assay and diluted two-fold. The range of concentrations assayed were 0.031–32 μg/ml for novicidin, 0.125–128 μg/ml for protamine and novispirin G10, and 0.25–256 μg/ml for plectasin. MIC was the lowest peptide concentration at which visual growth was inhibited. The minimum bactericidal concentration (MBC) values were determined by plating l0 μl samples from wells with no visible growth onto BHI agar plates. MBC was the lowest concentration of each peptide of which 99.9% reduction of the initial inoculum was observed.

GIINTLQKYYCRVRGGRCAVLSCLPKEEQIGKCSTRGRKCCRRKK (disulfide 11-40, 18-33, 23-41 (inferred)) [HBD-3, human β-defensin 3]
MIC (MEC) (Listeria monocytogenes; strain 4446, first of two values (two independent trials)): 16/16 μg/ml | MIC (MEC) (Listeria monocytogenes; strain 4446, second of two values (two independent trials)): 16/16 μg/ml | MIC (MEC) (Listeria monocytogenes; strain 7418, first of two values (two independent trials)): 4 µg/mL | MIC (MEC) (Listeria monocytogenes; strain 7418, second of two values (two independent trials)): 8 µg/mL | MIC (MEC) (Listeria monocytogenes; strain EGD, first of two values (two independent trials)): 16/16 μg/ml | MIC (MEC) (Listeria monocytogenes; strain EGD, second of two values (two independent trials)): 16/16 μg/ml | MIC (MEC) (Listeria monocytogenes; strain La22, first of two values (two independent trials)): 16/16 μg/ml | MIC (MEC) (Listeria monocytogenes; strain La22, second of two values (two independent trials)): 16/16 μg/ml | MIC (MEC) (Listeria monocytogenes; strain La111, first of two values (two independent trials)): 8 µg/mL | MIC (MEC) (Listeria monocytogenes; strain La111, second of two values (two independent trials)): 16 µg/mL | MIC (MEC) (Listeria monocytogenes; strain N53-1, first of two values (two independent trials)): 16 µg/mL | MIC (MEC) (Listeria monocytogenes; strain N53-1, second of two values (two independent trials)): 32 µg/mL | MIC (MEC) (Listeria monocytogenes; strain Scott A, first of two values (two independent trials)): 8/8 μg/ml | MIC (MEC) (Listeria monocytogenes; strain Scott A, second of two values (two independent trials)): 8/8 μg/ml | MIC (MEC) (Staphylococcus aureus; strain 796, first of two values (two independent trials)): 64/64 μg/ml | MIC (MEC) (Staphylococcus aureus; strain 796, second of two values (two independent trials)): 64/64 μg/ml | MIC (MEC) (Staphylococcus aureus; strain 2148-jvi, first of two values (two independent trials)): 32/32 μg/ml | MIC (MEC) (Staphylococcus aureus; strain 2148-jvi, second of two values (two independent trials)): 32/32 μg/ml | MIC (MEC) (Staphylococcus aureus; strain 8325-4, first of two values (two independent trials)): 32/32 μg/ml | MIC (MEC) (Staphylococcus aureus; strain 8325-4, second of two values (two independent trials)): 32/32 μg/ml | MIC (MEC) (Staphylococcus aureus; strain 14943, first of two values (two independent trials)): 32 µg/mL | MIC (MEC) (Staphylococcus aureus; strain 14943, second of two values (two independent trials)): 64 µg/mL | MIC (MEC) (Staphylococcus aureus; strain B31369, first of two values (two independent trials)): 64/64 μg/ml | MIC (MEC) (Staphylococcus aureus; strain B31369, second of two values (two independent trials)): 64/64 μg/ml | MIC (MEC) (Staphylococcus aureus; strain K3-B2, first of two values (two independent trials)): 32 µg/mL | MIC (MEC) (Staphylococcus aureus; strain K3-B2, second of two values (two independent trials)): 64 µg/mL | MIC (MEC) (Staphylococcus aureus; strain KES 626, first of two values (two independent trials)): 32 µg/mL | MIC (MEC) (Staphylococcus aureus; strain KES 626, second of two values (two independent trials)): 64 µg/mL

CC[C@H](C)[C@@H]1NC(=O)[C@H](CO)NC(=O)[C@H](CCCCN)NC(=O)[C@@H]2CSSC[C@@H](C(=O)N[C@@H](Cc3ccc(O)cc3)C(=O)O)NC(=O)[C@H](CCCCN)NC(=O)[C@@H]3CSSC[C@H](NC(=O)[C@H](CCC(N)=O)NC(=O)[C@H](CCSC)NC(=O)[C@H](CC(=O)O)NC(=O)[C@H](CC(=O)O)NC(=O)[C@H](CCC(=O)O)NC(=O)[C@H](CC(=O)O)NC(=O)[C@H](Cc4c[nH]c5ccccc45)NC(=O)[C@@H]4CCCN4C(=O)CNC(=O)[C@H](CC(N)=O)NC(=O)[C@@H](NC(=O)CNC(=O)[C@H](Cc4ccccc4)NC(=O)CN)CSSC[C@H](NC(=O)[C@H](Cc4ccc(O)cc4)NC(=O)CNC(=O)CNC(=O)[C@H](CCCCN)NC(=O)[C@H](Cc4ccc(O)cc4)NC(=O)CNC(=O)[C@H](CCCCN)NC1=O)C(=O)N[C@@H](C)C(=O)N[C@@H](CCCCN)C(=O)NCC(=O)NCC(=O)N[C@@H](Cc1ccccc1)C(=O)N[C@@H](C(C)C)C(=O)N3)C(=O)N[C@@H](Cc1c[nH]cn1)C(=O)N[C@@H](CC(N)=O)C(=O)N[C@@H](Cc1c[nH]cn1)C(=O)N2 [plectasin]
minimum bactericidal concentrations (MBC) [1]: identical to the MICs
